Laboratory results reported in publication PMC7833800 (Journal of Virological Methods, 2020).
Read-outs that look alike come from different tables or passages of the source.

Target: SARS-CoV RTC (nsp12 in complex with nsp7L8) (Severe acute respiratory syndrome coronavirus, UniProt P0C6X7)
Assay: biochemical

Structure (SMILES) | IC50 [µM] | IC50 (IC50) [µM]
O=c1ccn([C@@H]2O[C@H](COP(=O)(O)OP(=O)(O)OP(=O)(O)O)C[C@H]2O)c(=O)[nH]1 [3’dUTP] | 6.7 | –
O=c1cc(-c2ccc(O)cc2)oc2cc(O)cc(O)c12 [Apigenin] | – | 96
O=c1cc(-c2ccc(Oc3c(O)cc4oc(-c5ccc(O)cc5)cc(=O)c4c3O)cc2)oc2cc(O)cc(O)c12 [Hinokiflavone] | – | 0.95
